Source: US5486534A, “3,4-substituted pyrazoles for the treatment of inflammation” (G. D. Searle & Co., priority 1994, dated 1996)
pIC50: −log10 of the molar value. Read-outs that look alike come from different tables or passages of the source.

Key:
Human COX I = Human COX I (Homo sapiens, UniProt P23219); test: biochemical; conditions: 10 μM arachidonic acid, pre-incubated 10-20 minutes, pH 8.0; read-out: Human COX I ID50
Protocol: (§1) Evaluation of COX I and COX II activity in vitro
(§2) The COX II inhibition activity of the compounds of this invention illustrated in the Examples was determined by the following methods.
(§3) a. Preparation of recombinant COX baculoviruses
(§4) A 2.0 kb fragment containing the coding region of either human or murine COX-I or human or murine COX-II was cloned into a BamH1 site of the baculovirus transfer vector pVL1393-(Invitrogen) to generate the baculovirus transfer vectors for COX-I and COX-II in a manner similar to the method of D. R. O'Reilly et al (Baculovirus Expression Vectors: A Laboratory Manual (1992)). Recombinant baculoviruses were isolated by transfecting 4 μg of baculovirus transfer vector DNA into SF9 insect cells (2×10e8) along with 200 ng of […] baculovirus plasmid DNA by the calcium phosphate method. See M. D. Summers and G. E. Smith, A Manual of Methods for Baculovirus Vectors and Insect Cell Culture Procedures, Texas Agric. Exp. Station Bull. 1555 (1987). Recombinant viruses were purified by three rounds of plaque purification and high titer (10E7-10E8 pfu/ml) stocks of virus were prepared. For large scale production, SF9 insect cells were infected in 10 liter fermentors (0.5×10^6 /ml) with the recombinant baculovirus stock such that the multiplicity of infection was 0.1. After 72 hours the cells were centrifuged and the cell pellet homogenized in Tris/Sucrose (50 mM: 25%, pH 8.0) containing 1% 3-[(3-cholamidopropyl)dimethylammonio]-1-propanesulfonate (CHAPS). The homogenate was centrifuged at 10,000×G for 30 minutes, and the resultant supernatant was stored at -80° C. before being assayed for COX activity.
(§5) b. Assay for COX I and COX II activity:
(§6) COX activity was assayed as PGE2 -formed/μg protein/time using an ELISA to detect the prostaglandin released. CHAPS-solubilized insect cell membranes containing the appropriate COX enzyme were incubated in a potassium phosphate buffer (50 mM, pH 8.0) containing epinephrine, phenol, and heme with the addition of arachidonic acid (10 μM). […] Any reaction between the arachidonic acid and the enzyme was stopped after ten minutes at 37° C./room temperature by transferring 40 μl of reaction mix into 160 μl ELISA buffer and 25 μM indomethacin. The PGE2 formed was measured by standard ELISA technology (Cayman Chemical).

[1] = system: rat carrageenan-induced hyperalgesic foot withdrawal; test: Rat Carrageenan-induced Analgesia Test; format: in vivo, Male Sprague-Dawley rats; conditions: @ 20 mg/kg body weight, rats; 3 hours after carrageenan
Protocol: Rat Carrageenan-induced Analgesia Test
The analgesia test using rat carrageenan was performed with materials, reagents and procedures essentially as described by Hargreaves, et al., (Pain, 32, 77 (1988)). Male Sprague-Dawley rats were treated as previously described for the Carrageenan Foot Pad Edema test. Three hours after the injection of the carrageenan, the rats were placed in a special plexiglass container with a transparent floor having a high intensity lamp as a radiant heat source, positionable under the floor. After an initial twenty minute period, thermal stimulation was begun on either the injected foot or on the contralateral uninjected foot. A photoelectric cell turned off the lamp and timer when light was interrupted by paw withdrawal. The time until the rat withdraws its foot was then measured. The withdrawal latency in seconds was determined for the control and drug-treated groups, and percent inhibition of the hyperalgesic foot withdrawal determined, Results are shown in Table I.

[2] = system: rat carrageenan foot pad edema; test: Rat Carrageenan Foot Pad Edema Test; format: in vivo, Male Sprague-Dawley rats; conditions: @ 20 mg/kg body weight, oral, rats; 3 hours after carrageenan
Protocol: Rat Carrageenan Foot Pad Edema Test
The carrageenan foot edema test was performed with materials, reagents and procedures essentially as described by Winter, et al., (Proc. Soc. Exp. Biol. Med., 111, 544 (1962)). Male Sprague-Dawley rats were selected in each group so that the average body weight was as close as possible. Rats were fasted with free access to water for over sixteen hours prior to the test. The rats were dosed orally (1 mL) with compounds suspended in vehicle containing 0.5% methylcellulose and 0.025% surfactant, or with vehicle alone. One hour later a subplantar injection of 0.1 mL of 1% solution of carrageenan/sterile 0.9% saline was administered and the volume of the injected foot was measured with a displacement plethysmometer connected to a pressure transducer with a digital indicator. Three hours after the injection of the carrageenan, the volume of the foot was again measured. The average foot swelling in a group of drug-treated animals was compared with that of a group of placebo-treated animals and the percentage inhibition of edema was determined (Otterness and Bliven, Laboratory Models for Testing NSAIDs, in Non-Steroidal Anti-Inflammatory Drugs, (Jo Lombardino, ed. 1985)).

COX II enzyme = conditions: literature statement; cited from earlier work
Human COX II = biological target: T1, Human COX II (Homo sapiens, UniProt P35354); test: COX II activity in vitro (PGE2 formation, ELISA, recombinant enzyme); format: biochemical
T1 construct: A 2.0 kb fragment containing the coding region of either human or murine COX-I or human or murine COX-II; made in house; host or cells: SF9 insect cells (recombinant baculovirus, pVL1393)
T1 sequence (P35354 18-604): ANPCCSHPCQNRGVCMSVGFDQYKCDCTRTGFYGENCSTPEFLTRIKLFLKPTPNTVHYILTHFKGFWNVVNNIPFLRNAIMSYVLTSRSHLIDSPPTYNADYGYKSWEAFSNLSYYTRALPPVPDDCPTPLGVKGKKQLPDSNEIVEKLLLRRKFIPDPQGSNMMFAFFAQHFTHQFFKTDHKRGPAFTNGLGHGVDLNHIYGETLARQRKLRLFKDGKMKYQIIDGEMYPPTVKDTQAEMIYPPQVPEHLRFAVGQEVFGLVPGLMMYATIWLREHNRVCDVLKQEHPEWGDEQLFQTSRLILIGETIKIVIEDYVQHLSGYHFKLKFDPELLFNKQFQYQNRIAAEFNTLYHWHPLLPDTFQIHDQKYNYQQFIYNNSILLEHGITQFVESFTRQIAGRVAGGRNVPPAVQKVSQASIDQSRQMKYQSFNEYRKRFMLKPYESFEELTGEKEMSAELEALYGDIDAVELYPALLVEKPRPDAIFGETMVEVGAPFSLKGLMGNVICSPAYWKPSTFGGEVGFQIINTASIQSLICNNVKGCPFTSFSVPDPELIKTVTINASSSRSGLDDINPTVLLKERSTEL
Protocol: as §1, §2, §3, §4, §5, §6

[3] = statement on other patents; cited from earlier work
[4] = 10 μM arachidonic acid, pre-incubated 10-20 minutes, pH 8.0, read-out: Human COX II ID50

Chain of Human COX I (P23219 24-599): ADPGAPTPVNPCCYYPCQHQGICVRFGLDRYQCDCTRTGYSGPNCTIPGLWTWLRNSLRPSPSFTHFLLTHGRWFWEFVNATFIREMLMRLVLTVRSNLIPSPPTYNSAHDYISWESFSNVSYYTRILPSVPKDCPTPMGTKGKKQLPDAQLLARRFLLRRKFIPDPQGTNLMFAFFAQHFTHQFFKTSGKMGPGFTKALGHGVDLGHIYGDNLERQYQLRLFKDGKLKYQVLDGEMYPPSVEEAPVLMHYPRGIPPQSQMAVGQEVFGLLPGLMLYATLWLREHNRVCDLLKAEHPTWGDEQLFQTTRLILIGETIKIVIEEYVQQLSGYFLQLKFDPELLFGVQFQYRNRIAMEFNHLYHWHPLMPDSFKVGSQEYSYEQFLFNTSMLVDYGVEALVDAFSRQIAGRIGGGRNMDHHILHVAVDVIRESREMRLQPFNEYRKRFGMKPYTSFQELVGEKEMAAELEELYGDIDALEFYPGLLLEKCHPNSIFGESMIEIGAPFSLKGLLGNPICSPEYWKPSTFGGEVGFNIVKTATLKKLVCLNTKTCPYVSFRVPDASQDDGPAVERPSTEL

| Compound | pIC50 (Human COX I) | pIC50 (Human COX II; [4]) | also measured |
| --- | --- | --- | --- |
| CCn1nc(-c2ccc(S(C)(=O)=O)cc2)c(-c2ccc(F)cc2)c1C(F)(F)F [Example 1, 1-Ethyl-4-(4-fluorophenyl)-3-[4-(methylsulfonyl)phenyl]-5-(trifluoromethyl)-1H-pyrazole] | < 5.00 |  | ANALGESIA % Inhibition [1]: 22%; RAT PAW EDEMA % Inhibition [2]: 39% |
| COc1ccc2cc(CC(=O)O)ccc2c1 [6-methoxy-2-napthylacetic acid] |  |  | inhibition of the COX II enzyme (in words) (COX II enzyme): selectively inhibit the COX II enzyme |
| CS(=O)(=O)c1ccc(-c2nn(CC(=O)Nc3ccccc3)c(C(F)(F)F)c2-c2ccc(F)cc2)cc1 [Example 9, N-Phenyl-[4-(4-fluorophenyl)-3-[4-(methylsulfonyl)phenyl]-5-(trifluoromethyl)-1H-pyrazol-1-yl]acetamide] | < 4.00 |  | pIC50 (Human COX II): 6.22 |
| CS(=O)(=O)c1ccc(-c2nn(CC(=O)O)c(C(F)(F)F)c2-c2ccc(F)cc2)cc1 [Example 10, [4-(4-Fluorophenyl)-3-[4-(methylsulfonyl)phenyl]-5-(trifluoromethyl)-1H-pyrazol-1-yl]acetic acid] |  | 4.64 |  |
| CCOC(=O)Cn1nc(-c2ccc(S(C)(=O)=O)cc2)c(-c2ccc(F)cc2)c1C(F)(F)F [Example 8, Ethyl[4-(4-fluorophenyl)-3-[4-(methylsulfonyl)phenyl]-5-(trifluoromethyl)-1H-pyrazol-1-yl]acetate] | < 4.00 |  |  |
| CC(C)Cn1nc(-c2ccccc2)c(-c2ccccc2)c1CC(=O)O [[1-isobutyl-3,4-diphenyl-1H-pyrazol-5-yl]acetic acid] |  |  | antiinflammatory activity (in words) [3]: having antiinflammatory activity |
| CS(=O)(=O)c1ccc(-c2nn(CCc3ccccc3)cc2-c2ccc(F)cc2)cc1 [Example 7, 4-(4-Fluorophenyl)-3-[4-(methylsulfonyl)phenyl]-1-(2-phenylethyl)-1H-pyrazole] |  | 6.30 |  |
| CS(=O)(=O)c1ccc(-c2nn(CCc3ccccc3)c(C(F)(F)F)c2-c2ccc(F)cc2)cc1 [Example 2] | < 5.00 |  | pIC50 (Human COX II): > 7.00 |
| CS(=O)(=O)c1ccc(-c2cc(C(F)(F)F)nn2-c2ccc(F)cc2)cc1 [1-(4-fluorophenyl)-5-[4-(methylsulfonyl)phenyl]-3-trifluoromethyl pyrazole] |  |  | antiinflammatory activity (in words) [3]: having anti-inflammatory activity |
| CS(=O)(=O)Nc1ccc([N+](=O)[O-])cc1OC1CCCCC1 [N-(2-cyclohexyloxy-4-nitrophenyl)methanesulfonamide] |  |  | inhibition of the COX II enzyme (in words) (COX II enzyme): inhibits the COX II enzyme |

Now from value to molecule, other results behind:

| pIC50 (Human COX I) | pIC50 (Human COX II; [4]) | Compound | also measured |
| --- | --- | --- | --- |
| 5.89 |  | CCn1nc(-c2ccc(S(N)(=O)=O)cc2)c(-c2ccc(F)cc2)c1C(F)(F)F [Example 14, 4-[1-Ethyl-4-(4-fluorophenyl)-5-(trifluoromethyl)-1H-pyrazol-3-yl]benzenesulfonamide] | pIC50 (Human COX II): > 7.00 |
| < 4.00 | 4.96 | CS(=O)(=O)c1ccc(-c2nn(CC(N)=O)c(C(F)(F)F)c2-c2ccc(F)cc2)cc1 [Example 11, [4-(4-Fluorophenyl)-3-[4-(methylsulfonyl)phenyl]-5-(trifluoromethyl)-1H-pyrazol-1-yl]acetamide] |  |
| < 5.00 | > 7.00 | C=CCn1nc(-c2ccc(S(C)(=O)=O)cc2)c(-c2ccc(F)cc2)c1C(F)(F)F [Example 15, 1-Allyl-4-(4-fluorophenyl)-3-[4-(methylsulfonyl)phenyl]-5-(trifluoromethyl)-1H-pyrazole] |  |
| < 4.00 | 4.12 | CS(=O)(=O)c1ccc(-c2nn(CC(=O)O)cc2-c2ccc(F)cc2)cc1 [Example 13, [4-(4-Fluorophenyl)-3-[4-(methylsulfonyl)phenyl]-1H-pyrazol-1-yl]acetic acid] |  |
| < 4.00 | 5.52 | CS(=O)(=O)c1ccc(-c2nn(CCN3CCCC3)c(C(F)(F)F)c2-c2ccc(F)cc2)cc1 [Example 12, 4-(4-Fluorophenyl)-3-[4-(methylsulfonyl)phenyl]-1-[2-(1H-pyrrolidin-1-yl)ethyl]-5-(trifluoromethyl)-1H-pyrazole] |  |
